Assay results reported in patent US6521611B2 (Eli Lilly and Company, priority 1996, dated 2003).
Bridge positions count the residues as written; N and C are the ends. Square brackets hold non-standard residues; d marks the D form. Peptide text beside a SMILES is read from it. Orn = NCCC[C@H](N)C(=O)O; Mpa = O=C(O)CCS

Target: T1, human vasopressin V1a receptor (Homo sapiens, UniProt P37288)
T1 construct: expressed in transfected cells; host or cells: CHO (hV1a cell line), membrane preparation
Assay: human vasopressin V1a receptor binding, [3H]PMP-AVP, hV1a (CHO) cell membranes
Conditions: [3H]PMP-AVP 0.2 nM, read-out: BINDING AFFINITY (IC50 (nM))
Protocol: The human vasopressin V1a receptor has been cloned and expressed (Thibonnier et al., Journal of Biological Chemistry, 269, 3304-3310 (1994)). The nucleotide sequence has been deposited in the EMBL Databank under accession number Z11690.
The hV1a cell line was grown in alpha-MEM (alpha modification of Minimum essential medium Eagle, Sigma, St. Louis, Mo., USA) with 10% fetal bovine serum and 250 μg/ml G418 (Gibco, Grand Island, N.Y., USA). To prepare membranes, hV1a cells were grown to confluency in 20 roller bottles. Cells were dissociated with enzyme-free cell dissociation medium (Specialty Media, Lavallette, N.J., USA) and centrifuged at 2500 rpm for 10 minutes. The pellet was resuspended in 40 mL of Tris-HCl (tris[hydroxymethyl]aminomethane hydrochloride) buffer (50 mM, pH 7.4) and homogenized for 1 minute with a Tekmar Tissumizer (Cincinnatti, Ohio USA). The suspension was centrifuged at 40,000×g for 10 minutes. The pellet was resuspended and centrifuged as above. The final pellet was suspended in 80 mL of Tris 7.4 buffer and stored in 4 mL aliquots at −80° C. For assay, aliquots were resuspended in assay buffer and diluted to 125 μg protein per mL. Protein concentration was determined by BCA assay (Pierce, Rockford, Ill., USA).
Assay buffer was prepared by adjusting the pH of a solution of 50 mMol HEPES (N-2-Hydroxyethylpiperazine-N′-2-ethanesulfonic acid, Sigma, St. Louis, Mo., USA), 5 mMol MgCl2, and 1 mMol dithiothreitol pH 7.4 with NaOH, after which 40 μg/mL bacitracin and 10 μg/mL aprotinin were added. The radioligand for binding assays was [^3H]PMP-AVP (Manning vasopressin antagonist, 56 Ci/mMol, DuPont NEN, Boston, MA, USA). The order of additions was 195 μL assay buffer, 200 μL hV1a membranes (25 μg protein) in assay buffer, 5 μL of test agent in dimethylsulfoxide (DMSO) or DMSO alone, and 100 μL [^3H]PMP-AVP in assay buffer (final concentration 0.2 nM). Incubations were for one hour at room temperature. […] The filters were washed with ice-cold 50 mM Tris-HCl (pH 7.7 at 25° C.) and the filter circles were placed in scintillation vials, to which were then added 5 mL Ready Protein Plus scintillation fluid, and counted in a liquid scintillation counter. […] IC50 values were calculated by nonlinear least-squares curve-fitting to a 4-parameter logistic model.

T1 sequence (P37288 whole entry): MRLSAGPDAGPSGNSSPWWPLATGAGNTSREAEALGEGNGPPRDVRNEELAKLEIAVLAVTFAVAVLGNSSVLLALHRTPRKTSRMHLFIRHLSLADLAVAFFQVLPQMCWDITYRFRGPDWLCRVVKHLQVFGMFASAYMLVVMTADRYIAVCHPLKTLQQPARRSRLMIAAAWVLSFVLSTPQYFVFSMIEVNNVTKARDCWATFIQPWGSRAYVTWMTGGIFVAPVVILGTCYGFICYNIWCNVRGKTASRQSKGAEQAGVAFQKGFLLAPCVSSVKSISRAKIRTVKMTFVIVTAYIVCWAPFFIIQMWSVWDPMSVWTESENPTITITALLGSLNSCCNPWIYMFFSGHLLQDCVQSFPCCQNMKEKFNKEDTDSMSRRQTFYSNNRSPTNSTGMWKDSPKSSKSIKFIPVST

| IC50 | Compound |
| --- | --- |
| 16 nM | CCC1(C(C(=O)N2CCN(CCc3ccccc3)CC2)N2C(=O)[C@@H](N3C(=O)OC[C@@H]3c3ccccc3)[C@H]2/C=C/c2ccccc2)OCCO1 (stereo partly drawn) [Example 78] |
| 64 nM | CC(C)(C)OC(=O)C(C(=O)Cc1cccc(C(F)(F)F)c1)N1C(=O)C(N2C(=O)OCC2c2ccccc2)C1C=Cc1ccccc1 (mixture of isomers) [Example 50, tert-Butyl 2(R,S)-[3-(trifluoro)phenylacetyl]-2-[3(S)-(4(S)-phenyloxazolidin-2-on-3-yl)-4(R)-(2-styryl)-azetidin-2-on-1-yl]acetate] |
| 23 nM | CCC1(C(C(=O)NCc2ccccc2)N2C(=O)C(N3C(=O)OCC3c3ccccc3)C2C=Cc2ccccc2)OCCO1 [Example 31, N-[benzyl]-2-[(1,1-ethyleneketal)propionyl]-2-[3(S)-(4(S)-phenyloxazolidin-2-on-3-yl)-4(R)-(2-styryl)-azetidin-2-on-1-yl]acetamide] |
| 25 nM | Cc1cccc(CNC(=O)[C@H](CC(C)C)N2C(=O)[C@@H](N3C(=O)OC[C@@H]3c3ccccc3)[C@H]2/C=C/c2ccccc2)c1 [Example 112] |
| 5 nM | CCC1(C(C(=O)NCc2cccc(C(F)(F)F)c2)N2C(=O)[C@@H](N3C(=O)OC[C@@H]3c3ccccc3)[C@H]2/C=C/c2ccccc2)OCCO1 (stereo partly drawn) [Example 67] |
| 11 nM | CC(C)(C)C(=O)C(C(=O)OCc1cccc(Cl)c1)N1C(=O)C(N2C(=O)OCC2c2ccccc2)C1C=Cc1ccccc1 (mixture of isomers) [Example 46, 3-Chlorobenzyl 2(R,S)-[2,2-dimethylpropanoyl]-2-[3(S)-(4(S)-phenyloxazolidin-2-on-3-yl)-4(R)-(2-styryl)-azetidin-2-on-1-yl]acetate] |
| 13 nM | COC(=O)C(N1C(=O)[C@H](N2C(=O)OC[C@H]2c2ccccc2)[C@@H]1C=Cc1ccco1)C(O)(C(=O)c1ccccc1)c1ccccc1 (mixture of isomers) [Example 39, Methyl 2-(R,S)-[1-hydroxy-1,2-diphenyl-2-oxo-ethyl]-2-[3(R)-(4(R)-phenyloxazolidin-2-on-3-yl)-4(S)-(1-(fur-2-yl)-ethylen-2-yl)-azetidin-2-on-1-yl]acetate] |
| 40 nM | CC(C)C[C@@H](C(=O)NCc1cccc(Cl)c1)N1C(=O)[C@@H](N2C(=O)OC[C@@H]2c2ccccc2)[C@H]1/C=C/c1ccccc1 [Example 109] |
| 78 nM | CC(C)C[C@@H](C(=O)N1CCC(CCN2CCCCC2)CC1)N1C(=O)[C@@H](N2C(=O)OC[C@@H]2c2ccccc2)[C@H]1/C=C/c1ccccc1 [Example 34, 1-{2-(S)-isobutyl-2-[3(S)-(4(S)-phenyloxazolidin-2-on-3-yl)-4(R)-(2-styryl)-azetidin-2-on-1-yl]acetyl}-4-(2-(piperidin-1-yl)-ethyl)piperidine] |
| 28 nM | CC(C)(C)C[C@@H](C(=O)OCc1ccccc1)N1C(=O)[C@H](N2C(=O)OC[C@H]2c2ccccc2)[C@@H]1C=Cc1ccco1 [Example 27, Benzyl 2(S)-(2,2-dimethyl)propyl-2-[3(R)-(4(R)-phenyloxazolidin-2-on-3-yl)-4(S)-(1-(fur-2-yl)-ethylen-2-yl)-azetidin-2-on-1-yl]acetate] |
| 41 nM | CC(C)C[C@@H](C(=O)NCc1cccc(C(F)(F)F)c1)N1C(=O)[C@@H](N2C(=O)OC[C@@H]2c2ccccc2)[C@H]1/C=C/c1ccccc1 [Example 113] |
| 9 nM | CC(C)(C)C(=O)[C@@H](C(=O)OCc1ccccc1)N1C(=O)[C@@H](N2C(=O)OC[C@@H]2c2ccccc2)[C@H]1C=Cc1ccco1 [Example 54B, Benzyl 2-(S)-[2,2-dimethylpropanoyl]-2-[3(S)-(4(S)-phenyloxazolidin-2-on-3-yl)-4(R)-(1-(fur-2-yl)ethylen-2-yl)-azetidin-2-on-1-yl]acetate] |
| 42 nM | CC(C)C[C@@H](C(=O)NCCCN1CCN(C)CC1)N1C(=O)[C@@H](N2C(=O)OC[C@@H]2c2ccccc2)[C@H]1/C=C/c1ccccc1 [Example 97] |
| 2 nM | CC(C)(C)C(=O)[C@H](C(=O)OCc1ccccc1)N1C(=O)[C@@H](N2C(=O)OC[C@@H]2c2ccccc2)[C@H]1C=Cc1ccco1 [Example 54A, Benzyl 2-(R)-[2,2-dimethylpropanoyl]-2-[3(S)-(4(S)-phenyloxazolidin-2-on-3-yl)-4(R)-(1-(fur-2-yl)ethylen-2-yl)-azetidin-2-on-1-yl]acetate] |

| Compound | IC50 |
| --- | --- |
| CC(C)(C)C(O)C(C(=O)N1CCC(CCN2CCCCC2)CC1)N1C(=O)[C@@H](N2C(=O)OC[C@@H]2c2ccccc2)[C@H]1C=Cc1ccccc1 (stereo partly drawn) [Example 40, 1-{2-(R,S)-[1-hydroxy-2,2-dimethylpropyl]-2-[3(S)-(4(S)-phenyloxazolidin-2-on-3-yl)-4(R)-(2-styryl)-azetidin-2-on-1-yl]acetyl}-4-(2-(piperidin-1-yl)-ethyl)piperidine] | 40 nM |

Tested on: preterm contractions
Assay: not given
Conditions: studied clinically (Goodwin, et al., 1994); cited from earlier work

| Compound | inhibition of preterm contractions versus placebo |
| --- | --- |
| CCOc1ccc(C[C@H]2NC(=O)CCSSC[C@@H](C(=O)N3CCC[C@H]3C(=O)N[C@@H](CCCN)C(=O)NCC(N)=O)NC(=O)[C@H](CC(N)=O)NC(=O)[C@H]([C@@H](C)O)NC(=O)[C@H]([C@@H](C)CC)NC2=O)cc1 [atosiban] ([Mpa][dY](Et)ITNCP[Orn]G-NH2; disulfide 1-6) | more significant inhibition of preterm contractions than did placebo |

Tested on: not given
Assay: not given
Conditions: not given

| melting point | Compound |
| --- | --- |
| 158 to 160 °C | CC(C)(C)OC(=O)C(C(=O)Cc1cccc(C(F)(F)F)c1)N1C(=O)C(N2C(=O)OCC2c2ccccc2)C1C=Cc1ccccc1 (mixture of isomers) [Example 50, tert-Butyl 2(R,S)-[3-(trifluoro)phenylacetyl]-2-[3(S)-(4(S)-phenyloxazolidin-2-on-3-yl)-4(R)-(2-styryl)-azetidin-2-on-1-yl]acetate] |
| 138 to 140 °C | CC(C)C[C@@H](C(=O)OCc1ccccc1)N1C(=O)[C@@H](N2C(=O)OC[C@@H]2c2ccccc2)[C@H]1CCc1ccccc1 [Example 28, Benzyl 2-(S)-isobutyl-2-[3(S)-(4(S)-phenyloxazolidin-2-on-3-yl)-4(R)-(2-(phenyl)-ethyl)-azetidin-2-on-1-yl]acetate] |
| 150 to 152 °C | CC1(C(C(=O)NCc2ccccc2)N2C(=O)C(N3C(=O)OCC3c3ccccc3)C2C=Cc2ccccc2)OCCO1 [Example 30, N-[Benzyl]-2-[(1,1-ethyleneketal)acetyl]-2-[3(S)-(4(S)-phenyloxazolidin-2-on-3-yl)-4(R)-(2-styryl)-azetidin-2-on-1-yl)acetamide] |
| 180 °C | CC(C)(C)C[C@@H](C(=O)OCc1ccccc1)N1C(=O)[C@H](N2C(=O)OC[C@H]2c2ccccc2)[C@@H]1C=Cc1ccco1 [Example 27, Benzyl 2(S)-(2,2-dimethyl)propyl-2-[3(R)-(4(R)-phenyloxazolidin-2-on-3-yl)-4(S)-(1-(fur-2-yl)-ethylen-2-yl)-azetidin-2-on-1-yl]acetate] |

Tested on: golden hamsters
Assay: vasopressin-induced flank marking in golden hamsters
Format: in vivo, golden hamsters (Mesocricetus auratus)
Conditions: microinjection into anterior hypothalamus as cocktail with 1 μM vasopressin; scored 10 minutes
Protocol: In golden hamsters, a particular stereotypy, flank marking behavior, can be induced by micro-injections of vasopressin ([…], 1-100 μM) into the anterior hypothalamus (Ferris, et al., Science, 224, 521-523 (1984); Albers and Ferris, Regulatory Peptides, 12, 257-260 (1985); Ferris et al., European Journal of Pharmacology, 154, 153-159 (1988)). Following the releasing stimulus, the behavior is initiated by grooming, licking and combing of the large sebaceous glands on the dorsolateral flanks. Bouts of flank gland grooming may be so intense that the flank region is left matted and soaked in saliva. After grooming, the hamsters display flank marking behavior, a type of scent marking involved in olfactory communication (Johnston, Physio. Behav., 51, 437-448 (1985); Ferris, et al., Physio. Behav., 40, 661-664 (1987)), by arching the back and rubbing the flank glands vigorously against any vertical surface.
All animals were adult male golden hamsters (Mesocricetus auratus) weighing approximately 160 gm. The animals underwent stereotaxic surgery, and were allowed to recover before behavioral testing. […]
The hamsters were microinjected with 1 μM vasopressin in a volume of […]. […] Animals were scored for flank marking for a period of 10 minutes in a clean cage.

| Compound | inhibition of vasopressin-induced flank marking |
| --- | --- |
| CC(C)(C)C(=O)C(C(=O)OCc1ccccc1)N1C(=O)C(N2C(=O)OCC2c2ccccc2)C1C=Cc1ccccc1 (mixture of isomers) [Example 42, Benzyl 2-(R,S)-[2,2-dimethylpropanoyl]-2-[3(S)-(4(S)-phenyloxazolidin-2-on-3-yl)-4(R)-(2-styryl)azetidin-2-on-1-yl]acetate] | inhibited vasopressin-induced flank marking in a dose dependent manner |
